Experimental data as given in patent US9949968B2, “Diarylalkylamine REV-ERB antagonists and their use as medicaments” (FONDAZIONE ISTITUTO ITALIANO DI TECNOLOGIA, priority 2013, dated 2018).
Where a name gives a salt, the structure may show the parent alone.

Key:
[1] = system: tumorigenic breast cancer cells BT-474; assay: Growth inhibition assay (CyQUANT Cell Proliferation Assay) in BT-474 cells; assay type: cell-based; conditions: Homo sapiens; for GI50: 48 h, CyQUANT, read-out: Cell Growth Inibition GI50; for Emax: reduction of cells after 48 h at saturating dose, read-out: Cell Growth Inibition GImax
Source text: Given that REV-ERB target genes include several metabolic regulators, such as Pgc-1α and Nampt, it was decided to test the cell proliferation with a method that is independent from the metabolic state of the cell.
(§1) The CyQUANT® Cell Proliferation Assay Kit (Invitrogen) was used, an assay that has a linear detection range extending from 50 or fewer to at least 250,000 cells.
(§2) Frozen cells are simply thawed and lysed by addition of a buffer containing the CyQUANT®.
For the assay, tumorigenic breast cancer cells BT-474 cells were seeded at 2500 cells per well in a 96-well plate and incubated over-night at 37° C. Then, fresh medium containing different concentration of the compounds or vehicle (DMSO) was added and cells were growth 48 h at 37° C. Finally, cells were frozen at […] and then processed according to the manufacture instructions. A minimum of triplicate data for each dose was used for the analysis.
(§3) Data were collected and analyzed with Prism 5 software to calculate the growth inhibition curve.
(§4) In particular, values obtained from the DMSO treated cells was set at 100% of growth. Data from treatment of cells with serial dilutions of the compounds were normalized versus the DMSO group and fitted using a four-parameter dose-response curve.
(§5) GI50 was calculated as the concentration of compound that gives a response half way between bottom and top plateaus of the fitted curve.
The bottom plateaus of the fitted curve was used to calculate the Growth Inhibition max (GImax), defined as the percentage of the reduction of cells after 48 h upon a saturating dose of compound.
(§6) The different compounds were tested for their ability to inhibit the growth of the tumorigenic breast cancer cells BT-474 and for their antagonistic activity toward REV-ERB transcriptional repression, as described in the biological method section.
For the cell growth inhibition (GI) the growth inhibition 50 (GI50) and the growth inhibition max (GImax) are reported. […] The bottom plateaus of the curve was used to calculate the Growth Inhibition max (GImax), defined as the percentage of the reduction of cells after 48 h upon a saturating dose of the administered compound. Compounds with a GI50<100 μM were also tested for their antagonistic activity toward REV-ERB. For these compounds, the EC50 value is provided, calculated as the concentration of compound that gives a response half between the bottom (expression of the reporter in absence of compound) and the top (expression of the reporter at saturating doses of compound) plateaus of the fitted curves (see biological method section for a description of the reported assay). n.d.=not determined; n.t.=not tested.

REV-ERB = assay: Luciferase-based assay of REV-ERB mediated transcriptional regulation (RevRE/SV40-CLuc reporter in HEK-293 cells); assay type: cell-based; conditions: HEK-293 cells transfected with RevRE reporter and REV-ERBα and/or β; read 24 h post-transfection; read-out: REV-ERB antagonism EC50
Source text: Luciferase-Base Assay to Assess the Activity of the Compounds on REV-ERB Mediated Transcriptional Regulation
In order to assess the effect of the compounds of the invention on REV-ERB activity the inventors exploited the ability of REV-ERB to repress gene transcription of a specific DNA cis-element. In fact, the DNA binding domain (DBD) of REV-ERB recognizes specific DNA sequences (called RevREs=Rev-erb Responsive Elements) which contains an AGGTCA motif linked in 5′ to an A/T rich sequence harboring the following consensus: A/T A A/T N T (Harding et al., Mol Cell Biol., 1993; 13:3113).
Therefore, two repetitions of the RevRE consensus AGAATGTAGGTCA (SEQ ID NO: 13) upstream a SV40 promoter driving the expression of a reporter gene were cloned. As reported, the luciferase enzyme from the ostracod Cypridina noctiluca was adopted. […] Cypridina luciferase (CLuc) is secreted from cells by virtue of its natural signal peptide and its luminescence can be measured from the supernatant of transfected cells. Therefore, cell lysis is not necessary. Secreted CLuc is a very stable protein. Because of this property, the activity measured from the supernatant reflects the amount of protein accumulated up to the time of sampling. Multiple samples can therefore be obtained from the same transfected cells, allowing an easy set-up of time-course experiments. In addition, the direct use of the supernatant makes the system easily prone to automation for High Throughput Screening.
In order to normalize the experiment for the transfection efficiency, it was used a plasmid containing a SV40 promoter driving the expression of a secreted form of human alkaline phosphatase (SEAP), which enzymatic activity in the supernatant can be measured with chemiluminescence substrates.
To be able to rule out false-positive, for example due to the interference of the compounds to be tested with the fluorescence and/or chemiluminescence reactions, it was used as control a mutated version of the RevRE (GAGCCCGTAGGTCA) (SEQ ID NO: 14) that is no longer able to bind REV-ERB DBD (Harding et al., Mol Cell Biol., 1993; 13:3113).
The person skilled in the art will appreciate that an agonist will improve the ability of REV-ERB to repress the transcription, reducing the luminescence signal, while an antagonist will produce the opposite effect.
For the assay, HEK-293 cells were transfected with the reporter vectors and a plasmid expressing the REV-ERBα and/or β protein. After 6 h from transfection, the medium was replaced with fresh medium containing different doses of the compounds or vehicle (DMSO). After 24 h post-transfection, the supernatant was analyzed for the secreted luciferase and AP activity according to the manufacture instruction. Data normalized as fold activation versus vehicle (DMSO) were fitted using a four-parameter dose-response curve to calculate the EC50 of the different compounds.
as §6
For the cell growth inhibition (GI) the growth inhibition 50 (GI50) and the growth inhibition max (GImax) are reported. […] The bottom plateaus of the curve was used to calculate the Growth Inhibition max (GImax), defined as the percentage of the reduction of cells after 48 h upon a saturating dose of the administered compound. Compounds with a GI50<100 μM were also tested for their antagonistic activity toward REV-ERB. […]

[2] = system: endogenous REV-ERB mediated transcription; assay: Gene expression analysis (qPCR) of endogenous REV-ERB target genes in BT-474 cells; assay type: cell-based; conditions: 24 h, different doses, qPCR normalised to Gapdh
Method: Gene Expression Analysis of Endogenous REV-ERB Target Genes after Treatment with the Compound of Example 1
In order to test the effect of the compound of example 1 on the endogenous REV-ERB mediated transcription, BT-474 cells were treated 24 h with different doses of the compound of the example 1 and then processed for RNA extraction.
Total RNA was extracted with Trizol reagent (Invitrogen) according to the manufacture instruction. One microgram of RNA was retro-transcribed with VILO retrotranscription mix (Invitrogen) and subsequently analyzed by qPCR as described in Grimaldi et al., Cell Metab., 2010; 12:509-520.
The REV-ERB targets Per1, Bmal1, Nampt, and p21 were analyzed. Gapdh gene was used to normalize the data, while Hprt1 gene was used as independent REV-ERB gene (negative control).
The results obtained are illustrated in FIG. 1 Values are presented as Relative expression, calculated versus the normalizing gene Gapdh, and shown as mean±SEM from at least 3 independent experiments. The expression of the REV-ERBs independent gene, Hprt1, was used as negative control.

HCT116 = assay: Growth inhibition of different tumor cell lines: HCT116; assay type: cell-based; conditions: Homo sapiens, HCT-116; HCT116, colorectal carcinoma, p53 Wild-Type
Source text: as §1, §2, §3, §4, §5
(§7) To test if the growth inhibition activity of the compound of example 1 was limited to breast cancer BT-474 cells, or if it could be generalized in other tumor cells from different tissues, the GI50 of compound of example 1 was tested in several cell lines.

HCT116-E6 = assay: Growth inhibition of different tumor cell lines: HCT116-E6; assay type: cell-based; conditions: HCT116-E6, colorectal carcinoma, p53 no protein expression
Source text: as §1, §2, §3, §4, §5, §7

CaCO2 = assay: Growth inhibition of different tumor cell lines: CaCO2; assay type: cell-based; conditions: Homo sapiens, Caco-2; CaCO2, colorectal adenocarcinoma, p53 no protein expression
Source text: as §1, §2, §3, §4, §5, §7

WiDr = assay: Growth inhibition of different tumor cell lines: WiDr; assay type: cell-based; conditions: Homo sapiens, colon adenocarcinoma, p53 mutant protein
Source text: as §1, §2, §3, §4, §5, §7

Colo-205 = assay: Growth inhibition of different tumor cell lines: Colo-205; assay type: cell-based; conditions: Homo sapiens; Colo-205, colon, metastatic site: ascites, p53 mutant protein
Source text: as §1, §2, §3, §4, §5, §7

HepG2 = assay: Growth inhibition of different tumor cell lines: HepG2; assay type: cell-based; conditions: Homo sapiens; HepG2, liver hepatocellular carcinoma, p53 Wild-Type
Source text: as §1, §2, §3, §4, §5, §7

SK-Hep1 = assay: Growth inhibition of different tumor cell lines: SK-Hep1; assay type: cell-based; conditions: Homo sapiens; SK-Hep1, liver adenocarcinoma, p53 Wild-Type
Source text: as §1, §2, §3, §4, §5, §7

Hep3B = assay: Growth inhibition of different tumor cell lines: Hep3B; assay type: cell-based; conditions: Homo sapiens, liver hepatocellular carcinoma, p53 no protein expression
Source text: as §1, §2, §3, §4, §5, §7

HuH7 = assay: Growth inhibition of different tumor cell lines: HuH7; assay type: cell-based; conditions: Homo sapiens, Huh-7; HuH7, liver hepatocellular carcinoma, p53 mutant protein
Source text: as §1, §2, §3, §4, §5, §7

LXRα = biological target: T1, LXRα (Homo sapiens, UniProt Q13133); conditions: Trump et al., J. Med. Chem., 2013; cited from earlier work
T1 sequence (Q13133 1-447): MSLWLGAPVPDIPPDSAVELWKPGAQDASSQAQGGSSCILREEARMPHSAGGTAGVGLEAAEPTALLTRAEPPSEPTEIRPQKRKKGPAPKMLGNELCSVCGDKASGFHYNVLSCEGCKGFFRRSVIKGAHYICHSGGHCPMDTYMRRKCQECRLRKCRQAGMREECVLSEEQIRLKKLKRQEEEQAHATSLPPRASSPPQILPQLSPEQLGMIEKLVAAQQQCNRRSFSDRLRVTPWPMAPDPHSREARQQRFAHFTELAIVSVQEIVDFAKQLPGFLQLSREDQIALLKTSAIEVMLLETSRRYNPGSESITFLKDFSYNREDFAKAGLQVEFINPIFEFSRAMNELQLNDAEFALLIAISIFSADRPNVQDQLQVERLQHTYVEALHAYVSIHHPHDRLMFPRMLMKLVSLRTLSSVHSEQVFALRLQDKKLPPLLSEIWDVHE

[3] = cited from earlier work; for pharmacokinetic properties: literature; for metabolic clearance: in vivo, Solt et al., Nature, 2012
REV-ERBα = biological target: T2, REV-ERBα (Homo sapiens, UniProt P20393); conditions: literature; cited from earlier work
T2 sequence (P20393 284-614 limits assumed): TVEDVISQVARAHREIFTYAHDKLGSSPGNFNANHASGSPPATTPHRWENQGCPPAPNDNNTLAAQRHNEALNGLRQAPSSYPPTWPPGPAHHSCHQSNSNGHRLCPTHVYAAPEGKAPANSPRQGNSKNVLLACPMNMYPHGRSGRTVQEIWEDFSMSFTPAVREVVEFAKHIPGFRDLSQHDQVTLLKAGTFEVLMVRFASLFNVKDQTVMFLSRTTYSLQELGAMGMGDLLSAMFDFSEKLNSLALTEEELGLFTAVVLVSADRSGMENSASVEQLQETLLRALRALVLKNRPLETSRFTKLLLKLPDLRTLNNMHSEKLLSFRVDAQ

SMILES: CN1CCN(Cc2cc(CNC3(c4ccccc4F)CCCC3)ccc2O)CC1 [Example 1, 4-[[[1-(2-Fluorophenyl)cyclopentyl]amino]methyl]-2-[(4-methylpiperazin-1-yl)methyl]phenol trihydrochloride]
- GI50 [1]: 18 µM
- Emax [1]: 72%
- EC50 (REV-ERB): 25 µM
- expression of Bmal1 (REV-ERB target, circadian regulation) [2]: induced in a dose-dependent manner
- expression of Nampt (REV-ERB target, metabolism) [2]: induced in a dose-dependent manner
- expression of Per1 (REV-ERB target, circadian regulation) [2]: induced in a dose-dependent manner
- expression of p21 (REV-ERB target, cell cycle) [2]: induced in a dose-dependent manner
- expression of the REV-ERB independent gene Hprt1 (negative control) [2]: negligible effects
- GI50 (HCT116): 19 µM
- GI50 (HCT116-E6): 20 µM
- GI50 (CaCO2): 18 µM
- GI50 (WiDr): 12 µM
- GI50 (Colo-205): 30 µM
- GI50 (HepG2): 10 µM
- GI50 (SK-Hep1): 50 µM
- GI50 (Hep3B): 10 µM
- GI50 (HuH7): 8 µM

SMILES: CN1CCC(Cc2cccc(CNC3(c4ccc(F)cc4)CCCC3)c2)CC1 [Example 32, 1-(4-Fluorophenyl)-N-[[3-[(1-methyl-4-piperidyl)methyl]phenyl]methyl]cyclopentanamine dihydrochloride]
- GI50 [1]: 1 µM
- Emax [1]: 97%
- EC50 (REV-ERB): 2 µM

SMILES: CN1CCN(Cc2cc(CNC3(c4ccccc4F)CCC3)ccc2O)CC1 [Example 33, 4-[[[1-(2-Fluorophenyl)cyclobutyl]amino]methyl]-2-[(4-methylpiperazin-1-yl)methyl]phenol trihydrochloride]
- GI50 [1]: 30 µM
- Emax [1]: 70%
- EC50 (REV-ERB): 38 µM

SMILES: CC(C)(C)OC(=O)CN(Cc1ccc(Cl)cc1)Cc1ccc([N+](=O)[O-])s1 [GSK4112]
- activity on LXRα (LXRα): agonizes
- pharmacokinetic properties [3]: poor pharmacokinetic properties
- effect on interaction of NCoR peptide with REV-ERBα (FRET) (REV-ERBα): dose-dependently increase the interaction

SMILES: CCOC(=O)C1Cc2ccccc2CN1C(=O)c1ccc(SC)s1 (centres unmarked) [SR8278]
- pharmacokinetic properties [3]: poor pharmacokinetic properties
- effect on interaction of NCoR peptide with REV-ERBα (FRET) (REV-ERBα): inhibit REV-ERBα LBD/NcoR interaction

SMILES: CCOC(=O)N1CCC(CN(Cc2ccc(Cl)cc2)Cc2ccc([N+](=O)[O-])s2)C1 (centres unmarked) [SR9009]
- times more active toward LXRα than REV-ERBs (LXRα): 100 times
- metabolic clearance [3]: high metabolic clearance rates

SMILES: CCCCCNC(=O)N1CCC(CN(Cc2ccc(Cl)cc2)Cc2ccc([N+](=O)[O-])s2)C1 (centres unmarked) [SR9011]
- times more active toward LXRα than REV-ERBs (LXRα): 100 times
- metabolic clearance [3]: high metabolic clearance rates
